From patent publication US20060069132A1, “Azolecarboxamide herbicides” (priority 2004, published 2006)

Columns and labels:
ducksalad = experiment: Test C flooded paddy test; assay type: in vivo, Heteranthera limosa; conditions: for Plant response rating, Ducksalad: 500 g ai/ha, visual rating after 12 to 14 days
barnyardgrass = experiment: Test C flooded paddy test; assay type: in vivo, Echinochloa crus-galli; conditions: for Plant response rating, Barnyardgrass: 500 g ai/ha, visual rating after 12 to 14 days
Procedure, shortened: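 Visual rating, 0 (no effect) to 100 (complete control), vs. controls at 12–14 d in greenhouse. Postemergence: 1–4-leaf plants, 2–18 cm. Paddy: flooded, barnyardgrass at 2-leaf stage.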

velvetleaf = experiment: Test A pre-/postemergence herbicide test; assay type: in vivo, Abutilon theophrasti
Procedure, shortened: (§1)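 Both application timings were run together: directed soil spray over freshly planted seeds in sandy loam, and runoff spray onto 2–10 cm seedlings. Evaluation after ~10 days in greenhouse used a 0–100 visual scale versus untreated controls.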

large crabgrass = experiment: Test A pre-/postemergence herbicide test; assay type: in vivo, Digitaria sanguinalis
Procedure, shortened: as §1

giant foxtail = experiment: Test A pre-/postemergence herbicide test; assay type: in vivo, Setaria faberi
Procedure, shortened: as §1

[1] = 62 g ai/ha, scale 0 to 100 (0 no effect, 100 complete control)
[2] = 125 g ai/ha, scale 0 to 100 (0 no effect, 100 complete control)
[3] = 250 g ai/ha, scale of 0 to 100, 0 is no effect, 100 is complete control
[4] = scale 0 to 100 (0 no effect, 100 complete control)
[5] = Postemergence, 500 g ai/ha, 0 to 100 scale, 0 no effect, 100 complete control
[6] = Postemergence, 2000 g ai/ha, 0 to 100 scale, 0 no effect, 100 complete control
[7] = Preemergence, 2000 g ai/ha, visual rating, 0 to 100 scale (0 no effect, 100 complete control)
[8] = preemergence, 500 g ai/ha, visual injury, 0 to 100 scale (0 no effect, 100 complete control)
[9] = 125 g ai/ha, scale of 0 to 100, 0 is no effect, 100 is complete control
[10] = Postemergence, 125 g ai/ha, 0 to 100 scale, 0 no effect, 100 complete control
[11] = Preemergence, 500 g ai/ha, visual rating, 0 to 100 scale (0 no effect, 100 complete control)
[12] = preemergence, 125 g ai/ha, visual injury, 0 to 100 scale (0 no effect, 100 complete control)

Structure (SMILES)	Ducksalad plant response rating (ducksalad; [1])	Ducksalad plant response rating (ducksalad; [2])	Ducksalad plant response rating (ducksalad; [3])	Plant response rating, Ducksalad (ducksalad; [4])	Barnyardgrass plant response rating (barnyardgrass; [1])	Barnyardgrass plant response rating (barnyardgrass; [2])	Barnyardgrass plant response rating (barnyardgrass; [3])	Plant response rating, Barnyardgrass (barnyardgrass; [4])	Velvetleaf plant response rating (velvetleaf; [5])	Plant response rating, Velvetleaf (velvetleaf; [6])	Velvetleaf plant response rating (velvetleaf; [7])	Velvetleaf plant response rating (velvetleaf; [8])	Crabgrass, Large plant response rating (large crabgrass; [5])	Plant response rating, Crabgrass, Large (large crabgrass; [6])	Crabgrass, Large plant response rating (large crabgrass; [7])	Crabgrass, Large plant response rating (large crabgrass; [8])	Foxtail, Giant plant response rating (giant foxtail; [5])	Plant response rating, Foxtail, Giant (giant foxtail; [6])	Foxtail, Giant plant response rating (giant foxtail; [7])	Barnyardgrass plant response rating (barnyardgrass; [9])	also measured
CCc1nc(C(C)(C)C)sc1C(=O)Nc1cccc(C(=O)NCCF)c1 [Compound 209]	65	65	65	80	0	55	70	80	10	20	75	10	20	40	95	75	15	25	90		Foxtail, Giant plant response rating (giant foxtail; [8]): 50
CCn1nc(C(C)(C)C)cc1C(=O)Nc1cc(C(=O)NCC2CC2)ccn1 [Compound 155]	45	80	85	90	0		50	65												25	
CCn1nc(C(C)(C)C)cc1C(=O)Nc1cncc(C(=O)N2CC=CC2)n1 [Compound 290]		0	45	70	0	0	25	40	20	30	30	15	10	10	25	5	15	70	90		Ducksalad plant response rating (ducksalad; 62 g ai/ha, scale 0 to 100): 0; Foxtail, Giant plant response rating (giant foxtail; [8]): 50
CCc1nc(C(C)(C)C)sc1C(=O)Nc1cccc(C(=O)NC(C)(C)C)n1 [Compound 216]	0	20	30	40	0	0	0	30	25	35	30	10	20	20	55	15	20	20	70		Foxtail, Giant plant response rating (giant foxtail; [8]): 25
CCn1nc(C(C)(C)C)cc1C(=O)Nc1cccc(C(=O)NC(C)C)c1 [Compound 51]	0		75	85	0		20	75												0	Ducksalad plant response rating (ducksalad; [9]): 55; Velvetleaf plant response rating (velvetleaf; [10]): 40; Velvetleaf plant response rating (velvetleaf; [11]): 100; Velvetleaf plant response rating (velvetleaf; [12]): 20; Crabgrass, Large plant response rating (large crabgrass; [10]): 30; Plant response rating, Crabgrass, Large (large crabgrass; [5]): 30; Crabgrass, Large plant response rating (large crabgrass; [11]): 80; Crabgrass, Large plant response rating (large crabgrass; [12]): 80; Foxtail, Giant plant response rating (giant foxtail; [10]): 20; Plant response rating, Foxtail, Giant (giant foxtail; [5]): 40; Foxtail, Giant plant response rating (giant foxtail; [11]): 100; Foxtail, Giant plant response rating (giant foxtail; [12]): 70
CCOc1cccc(NC(=O)c2cc(C(C)(C)C)nn2CC)c1 [Compound 136]	0	0	45	90	20		40	80	55	75	30	25	35	70	90		25	50	70	25	Crabgrass, Large plant response rating (large crabgrass; [11]): 85; Foxtail, Giant plant response rating (giant foxtail; [11]): 60
CCn1nc(C(C)(C)C)cc1C(=O)Nc1cccc(C(C)=O)c1 [Compound 122]	50		80	80	20		60	80	45	70	70	40	35	65	95		80	80	85	50	Ducksalad plant response rating (ducksalad; [9]): 80; Crabgrass, Large plant response rating (large crabgrass; [11]): 70; Foxtail, Giant plant response rating (giant foxtail; [11]): 65
CCn1nc(C(C)(C)C)cc1C(=O)Nc1cccc(OS(=O)(=O)CC)c1 [Compound 408]		85	95	95	20	45	60	70													Ducksalad plant response rating (ducksalad; 62 g ai/ha, scale 0 to 100): 65
